Converted amounts (≈) assume the structure as drawn.
What was measured:
Format in all cases: cell-based
[1] = tested on: Mannheimia haemolytica MH 6357 (M7/2, reference strain, cattle infection strain); assay: MIC, broth-microdilution (CLSI VET01-A4), strain MH 6357; conditions: Mannheimia haemolytica strain MH 6357, broth-microdilution; unit assumed
Outline: (§1)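 Two-fold serial dilutions of each compound were prepared, bacteria were grown in them, and plates were then inspected visually. No turbidity at the lowest concentration defined the MIC.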

[2] = tested on: Mannheimia haemolytica MH 6374 (ATCC 33396, reference strain); assay: MIC, broth-microdilution (CLSI VET01-A4), strain MH 6374; conditions: Mannheimia haemolytica strain MH 6374, broth-microdilution; unit assumed
Outline: as §1

[3] = tested on: Mannheimia haemolytica MH 10720 (154, BRD field isolate); assay: MIC, broth-microdilution (CLSI VET01-A4), strain MH 10720; conditions: Mannheimia haemolytica strain MH 10720, broth-microdilution; unit assumed
Outline: as §1

[4] = tested on: Mannheimia haemolytica MH 12587 (1071, BRD field isolate, macrolide-resistance: erm+, E+); assay: MIC, broth-microdilution (CLSI VET01-A4), strain MH 12587; conditions: Mannheimia haemolytica strain MH 12587, broth-microdilution; unit assumed
Outline: as §1

[5] = tested on: Mannheimia haemolytica MH 13065 (XB0446-6003.9, BRD field isolate); assay: MIC, broth-microdilution (CLSI VET01-A4), strain MH 13065; conditions: Mannheimia haemolytica strain MH 13065, broth-microdilution; unit assumed
Outline: as §1

[6] = tested on: Mannheimia haemolytica MH 13093 (XB0472-6014.1, BRD field isolate); assay: MIC, broth-microdilution (CLSI VET01-A4), strain MH 13093; conditions: Mannheimia haemolytica strain MH 13093, broth-microdilution; unit assumed
Outline: as §1

[7] = tested on: Pasteurella multocida PM 6267 (P 2225 (L386), reference strain, mouse infection strain); assay: MIC, broth-microdilution (CLSI VET01-A4), strain PM 6267; conditions: Pasteurella multocida strain PM 6267, broth-microdilution; unit assumed
Outline: as §1

[8] = tested on: Pasteurella multocida PM 6391 (ATCC 43137, reference strain); assay: MIC, broth-microdilution (CLSI VET01-A4), strain PM 6391; conditions: Pasteurella multocida strain PM 6391, broth-microdilution; unit assumed
Outline: as §1

[9] = tested on: Pasteurella multocida PM 10775 (080130003051, BRD field isolate); assay: MIC, broth-microdilution (CLSI VET01-A4), strain PM 10775; conditions: Pasteurella multocida strain PM 10775, broth-microdilution; unit assumed
Outline: as §1

[10] = tested on: Pasteurella multocida PM 12080 (IV102277-0093, BRD field isolate); assay: MIC, broth-microdilution (CLSI VET01-A4), strain PM 12080; conditions: Pasteurella multocida strain PM 12080, broth-microdilution; unit assumed
Outline: as §1

CC(C)([C@H](NC(=O)c1ccc(C#Cc2ccc(CNCc3ccccn3)s2)cc1)C(=O)NO)S(C)(=O)=O [Compound 320] was tested, and the MIC MH 6357 [1] was 0.2 µg/mL (≈ 0.37 µM), the MIC MH 6374 [2] was no more than 0.1 µg/mL and the MIC MH 10720 [3] was no more than 0.1 µg/mL. For the same compound, the MIC MH 12587 [4] was 0.8 µg/mL (≈ 1.48 µM), the MIC MH 13065 [5] was 0.2 µg/mL (≈ 0.37 µM) and the MIC MH 13093 [6] was 0.4 µg/mL (≈ 0.74 µM). For the same compound, the MIC PM 6267 [7] was 0.2 µg/mL (≈ 0.37 µM), the MIC PM 6391 [8] was no more than 0.1 µg/mL and the MIC PM 10775 [9] was no more than 0.1 µg/mL. It also gave an MIC PM 12080 [10] of no more than 0.1 µg/mL.
For CC(C)(O)[C@H](NC(=O)c1ccc(C#Cc2ccc(CNCc3ccco3)cc2)cc1)C(=O)NO [Compound 231], the MIC MH 6357 [1] was 0.4 µg/mL (≈ 0.867 µM), the MIC MH 6374 [2] was 0.2 µg/mL (≈ 0.433 µM) and the MIC MH 10720 [3] was no more than 0.1 µg/mL. It also gave an MIC MH 12587 [4] of 0.8 µg/mL (≈ 1.73 µM), an MIC MH 13065 [5] of 0.2 µg/mL (≈ 0.433 µM) and an MIC MH 13093 [6] of 0.4 µg/mL (≈ 0.867 µM). For the same compound, the MIC PM 6267 [7] was no more than 0.1 µg/mL, the MIC PM 6391 [8] was no more than 0.1 µg/mL and the MIC PM 10775 [9] was no more than 0.1 µg/mL. The MIC PM 12080 [10] was no more than 0.1 µg/mL.
Compound C=CCNCc1ccc(C#Cc2ccc(C(=O)N[C@H](C(=O)NO)C(C)(C)SC)cc2)cc1 [C.236] has an MIC MH 6357 [1] of 0.8 µg/mL (≈ 1.77 µM), an MIC MH 6374 [2] of 0.8 µg/mL (≈ 1.77 µM) and an MIC MH 10720 [3] of no more than 0.1 µg/mL. It also gave an MIC MH 12587 [4] of 1.6 µg/mL (≈ 3.54 µM), an MIC MH 13065 [5] of 0.8 µg/mL (≈ 1.77 µM) and an MIC MH 13093 [6] of 0.8 µg/mL (≈ 1.77 µM). It also gave an MIC PM 6267 [7] of no more than 0.1 µg/mL, an MIC PM 6391 [8] of 0.4 µg/mL (≈ 0.886 µM) and an MIC PM 10775 [9] of no more than 0.1 µg/mL. The MIC PM 12080 [10] was 0.4 µg/mL (≈ 0.886 µM).
COCCNCc1ccc(C#Cc2ccc(C(=O)N[C@H](C(=O)NO)C(C)(C)O)cc2)s1 [C.292] showed an MIC MH 6357 [1] of 0.4 µg/mL (≈ 0.898 µM), an MIC MH 6374 [2] of 0.8 µg/mL (≈ 1.8 µM) and an MIC MH 10720 [3] of no more than 0.1 µg/mL. For the same compound, the MIC MH 12587 [4] was 1.6 µg/mL (≈ 3.59 µM), the MIC MH 13065 [5] was 0.8 µg/mL (≈ 1.8 µM) and the MIC MH 13093 [6] was 1.6 µg/mL (≈ 3.59 µM). The MIC PM 6267 [7] was 1.6 µg/mL (≈ 3.59 µM), the MIC PM 6391 [8] was 0.8 µg/mL (≈ 1.8 µM) and the MIC PM 10775 [9] was no more than 0.1 µg/mL. It also gave an MIC PM 12080 [10] of 0.4 µg/mL (≈ 0.898 µM).
O=C(N[C@@H](CO)C(=O)NO)c1ccc(C#Cc2ccc(CNCC3CCCO3)cc2)cc1 (stereo partly shown) [Compound 162] gave an MIC MH 6357 [1] of 6.3 µg/mL (≈ 14.4 µM), an MIC MH 6374 [2] of 12.5 µg/mL (≈ 28.6 µM) and an MIC MH 10720 [3] of 3.1 µg/mL (≈ 7.09 µM). For the same compound, the MIC MH 12587 [4] was 12.5 µg/mL (≈ 28.6 µM), the MIC MH 13065 [5] was 12.5 µg/mL (≈ 28.6 µM) and the MIC MH 13093 [6] was 12.5 µg/mL (≈ 28.6 µM). It also gave an MIC PM 6267 [7] of 0.8 µg/mL (≈ 1.83 µM), an MIC PM 6391 [8] of 3.1 µg/mL (≈ 7.09 µM) and an MIC PM 10775 [9] of no more than 0.1 µg/mL. For the same compound, the MIC PM 12080 [10] was 1.6 µg/mL (≈ 3.66 µM).
Cc1cnc(CNCc2ccc(C#Cc3ccc(C(=O)N[C@H](C(=O)NO)C(C)(C)S(C)(=O)=O)cc3)cn2)o1 [Compound 357] gave an MIC MH 6357 [1] of 0.8 µg/mL (≈ 1.48 µM), an MIC MH 6374 [2] of 0.8 µg/mL (≈ 1.48 µM) and an MIC MH 10720 [3] of no more than 0.1 µg/mL. The MIC MH 12587 [4] was 1.6 µg/mL (≈ 2.97 µM), the MIC MH 13065 [5] was 0.8 µg/mL (≈ 1.48 µM) and the MIC MH 13093 [6] was 1.6 µg/mL (≈ 2.97 µM). For the same compound, the MIC PM 6267 [7] was 0.8 µg/mL (≈ 1.48 µM), the MIC PM 6391 [8] was 0.4 µg/mL (≈ 0.741 µM) and the MIC PM 10775 [9] was no more than 0.1 µg/mL. It also gave an MIC PM 12080 [10] of 0.2 µg/mL (≈ 0.371 µM).
With COc1ccc(CNCc2ccc(C#Cc3ccc(C(=O)N[C@H](C(=O)NO)C(C)(C)S(C)(=O)=O)cc3)s2)cc1 [Compound 316] the MIC MH 6357 [1] was no more than 0.1 µg/mL, the MIC MH 6374 [2] was 0.2 µg/mL (≈ 0.351 µM) and the MIC MH 10720 [3] was no more than 0.1 µg/mL. It also gave an MIC MH 12587 [4] of 0.8 µg/mL (≈ 1.4 µM), an MIC MH 13065 [5] of 0.2 µg/mL (≈ 0.351 µM) and an MIC MH 13093 [6] of 0.4 µg/mL (≈ 0.702 µM). For the same compound, the MIC PM 6267 [7] was 0.2 µg/mL (≈ 0.351 µM), the MIC PM 6391 [8] was no more than 0.1 µg/mL and the MIC PM 10775 [9] was no more than 0.1 µg/mL. It also gave an MIC PM 12080 [10] of no more than 0.1 µg/mL.
Cc1cnc(CNCc2ccc(C#Cc3ccc(C(=O)N[C@H](C(=O)NO)C(C)(C)O)cc3)cn2)o1 [Compound 334] showed an MIC MH 6357 [1] of 0.4 µg/mL (≈ 0.838 µM), an MIC MH 6374 [2] of 0.4 µg/mL (≈ 0.838 µM) and an MIC MH 10720 [3] of no more than 0.1 µg/mL. For the same compound, the MIC MH 12587 [4] was 1.6 µg/mL (≈ 3.35 µM), the MIC MH 13065 [5] was 0.8 µg/mL (≈ 1.68 µM) and the MIC MH 13093 [6] was 1.6 µg/mL (≈ 3.35 µM). For the same compound, the MIC PM 6267 [7] was 0.4 µg/mL (≈ 0.838 µM), the MIC PM 6391 [8] was 0.4 µg/mL (≈ 0.838 µM) and the MIC PM 10775 [9] was no more than 0.1 µg/mL. It also gave an MIC PM 12080 [10] of 0.2 µg/mL (≈ 0.419 µM).
Work on CC(C)(C(NC(=O)c1ccc(C#Cc2ccc(CNCC(F)(F)F)cc2)cc1)C(=O)NO)[N+](=O)[O-] (stereo not shown) [Compound 288] yielded an MIC MH 6357 [1] of 0.4 µg/mL (≈ 0.812 µM), an MIC MH 6374 [2] of 0.8 µg/mL (≈ 1.62 µM) and an MIC MH 10720 [3] of no more than 0.1 µg/mL. The MIC MH 12587 [4] was 0.8 µg/mL (≈ 1.62 µM), the MIC MH 13065 [5] was 0.4 µg/mL (≈ 0.812 µM) and the MIC MH 13093 [6] was 0.8 µg/mL (≈ 1.62 µM). For the same compound, the MIC PM 6267 [7] was 0.4 µg/mL (≈ 0.812 µM), the MIC PM 6391 [8] was no more than 0.1 µg/mL and the MIC PM 10775 [9] was no more than 0.1 µg/mL. It also gave an MIC PM 12080 [10] of no more than 0.1 µg/mL.
For CSC(C)(C)[C@H](NC(=O)c1ccc(C#Cc2ccc(CNCc3nccs3)nc2)cc1)C(=O)NO [Compound 368], the MIC MH 6357 [1] was 0.8 µg/mL (≈ 1.57 µM), the MIC MH 6374 [2] was 0.8 µg/mL (≈ 1.57 µM) and the MIC MH 10720 [3] was 0.4 µg/mL (≈ 0.785 µM). The MIC MH 12587 [4] was 1.6 µg/mL (≈ 3.14 µM), the MIC MH 13065 [5] was 0.8 µg/mL (≈ 1.57 µM) and the MIC MH 13093 [6] was 1.6 µg/mL (≈ 3.14 µM). It also gave an MIC PM 6267 [7] of 0.4 µg/mL (≈ 0.785 µM), an MIC PM 6391 [8] of 0.4 µg/mL (≈ 0.785 µM) and an MIC PM 10775 [9] of no more than 0.1 µg/mL. It also gave an MIC PM 12080 [10] of 0.2 µg/mL (≈ 0.392 µM).

From US11034650B2, “Compounds useful for treating a Mannheimia haemolytica or Histophilus somni infection” (Intervet Inc., priority 2016, dated 2021)
